Assay results from US20260070924A1, “INDAZOLE MACROCYCLES AND THEIR USE” (BLOSSOMHILL THERAPEUTICS, INC., priority 2022, published 2026).

Assays:
Experiment in all cases: Cell proliferation panel (CellTiter-Glo 2.0, 5 days)
Assay type in all cases: cell-based
22RV1 = details: Prostate carcinoma
Protocol: (§1) Cell proliferation assay was carried out in a panel of 108 cell lines. 1000 (attached cells) or 3000 (suspension cells) cells/100 μl per well were seeded in 96 well black plate with a clear bottom (Corning #3904). Compounds were added using Tecan D300e Digital Dispenser in 1:3 titration for 9 doses. Plates were incubated for 5 days at 37° C. and 5% CO2. Cell proliferation was measured using CellTiter-Glo 2.0 luciferase-based ATP detection assay (Promega, Madison, WI) at 50 μl per well following the manufacturer's protocol. Plates were then read on a TECAN Sparks multimode microplate reader. Data was analyzed using GraphPad Prism 9 (GraphPad Software, San Diego, CA) to obtain IC50 values. IC50 values were determined using Prism software (GraphPad Software, San Diego, CA).

ASPC1 = details: Pancreatic adenocarcinoma
Protocol: as §1

BT-474 = details: Mammary gland ductal carcinoma
Protocol: as §1

CAPAN2 = details: Pancreatic adenocarcinoma
Protocol: as §1

CHP-212 = details: Neuroblastoma
Protocol: as §1

COLO320 = details: Colorectal adenocarcinoma
Protocol: as §1

CT26 = details: Murine colon carcinoma fibroblasts
Protocol: as §1

Caki-2 = details: Kidney clear cell carcinoma
Protocol: as §1

DLD1 = details: Colorectal adenocarcinoma
Protocol: as §1

DU4475 = details: Breast carcinoma
Protocol: as §1

GP2D = details: Colon adenocarcinoma
Protocol: as §1

H2228 = details: Lung adenocarcinoma, NSCLC
Protocol: as §1

H441 = details: Lung adenocarcinoma NSCLC
Protocol: as §1

H526 = details: Small cell lung cancer
Protocol: as §1

HCC1419 = test system: HCC1419
Protocol: as §1

HCC1569 = details: Mammary gland metaplastic carcinoma
Protocol: as §1

HCC827 = details: Lung adenocarcinoma NSCLC
Protocol: as §1

HCT116 = details: Colorectal adenocarcinoma
Protocol: as §1

HNT-34 = details: Acute myeloid leukemia
Protocol: as §1

HPAC = details: Pancreatic carcinoma
Protocol: as §1

JPC3 = details: Lung carcinoma
Protocol: as §1

JeKo-1 = details: Mantle cell lymphoma
Protocol: as §1

KASUMI-3 = details: Acute myeloblastic leukemia
Protocol: as §1

KATOIII = details: Gastric carcinoma
Protocol: as §1

KG-1 = details: Acute myelogenous leukemia
Protocol: as §1

KP-N-RT-BM-1 = details: Neuroblastoma
Protocol: as §1

LS180 = details: Colorectal adenocarcinoma
Protocol: as §1

MC38 = details: Murine colon adenocarcinoma
Protocol: as §1

MCF7 = details: Breast adenocarcinoma
Protocol: as §1

MOLM-1 = details: Chronic myeloid leukemia
Protocol: as §1

MOLM13 = details: Acute myeloid leukemia
Protocol: as §1

MV-4-11 = details: Biphenotypic B-Myelomonocytic Leukemia
Protocol: as §1

NB-1 = details: Neuroblastoma
Protocol: as §1

Ovcar3 = details: Ovarian adenocarcinoma
Protocol: as §1

PA-1 = details: Ovary Teratocarcinoma
Protocol: as §1

PANC0403 = details: Pancreatic adenocarcinoma
Protocol: as §1

SK-BR-3 = details: Breast adenocarcinoma
Protocol: as §1

SK-N-AS = details: Neuroblastoma
Protocol: as §1

SKNO-1 = details: Acute myeloid leukemia
Protocol: as §1

SU-DHL-6 = details: Diffuse Large B Cell Lymphoma
Protocol: as §1

SW1990 = details: Pancreatic adenocarcinoma
Protocol: as §1

SW403 = details: Colorectal adenocarcinoma
Protocol: as §1

SW480 = details: Colorectal adenocarcinoma
Protocol: as §1

T47D = details: Mammary gland ductal carcinoma
Protocol: as §1

Toledo = details: Diffuse Large B Cell Lymphoma
Protocol: as §1

U87 MG = details: Glioblastoma
Protocol: as §1

ZR-75-1 = details: Mammary gland ductal carcinoma
Protocol: as §1

`CCc1nn(C)c2c1/C=C/c1n[nH]c3ccc(cc13)-c1cnn(C)c1OCCN(C)C2=O` [Ex. 6, (17E)-16-ethyl-8,12,14-trimethyl-2,11,12,14-tetrahydro-8H-3,5-ethenotripyrazolo[3,4-f:3′,4′-j:4″,3″-n][1,4]oxazacyclopentadecin-13(10H)-one] was tested. Which IC50 (22RV1) did it give?
The IC50 was 73.2 nM.

And the IC50 (ASPC1)?
Its IC50 is 241 nM.

And the IC50 (BT-474)?
Its IC50 is 278 nM.

What about the IC50 (CAPAN2) of the same molecule?
The IC50 was 365 nM.

What about the IC50 (CHP-212) of the same molecule?
The IC50 was 27.4 nM.

And the IC50 (COLO320)?
Its IC50 is 85.2 nM.

And the IC50 (CT26)?
Its IC50 is 215 nM.

What about the IC50 (Caki-2) of the same molecule?
The IC50 was 142 nM.

What about the IC50 (DLD1) of the same molecule?
The IC50 was 48.7 nM.

And the IC50 (DU4475)?
Its IC50 is 61.4 nM.

And the IC50 (GP2D)?
Its IC50 is 121 nM.

What about the IC50 (H2228) of the same molecule?
The IC50 was 118 nM.

What about the IC50 (H441) of the same molecule?
Its IC50 is 91.1 nM.

What about the IC50 (H526) of the same molecule?
The IC50 was 75.5 nM.

And the IC50 (HCC1419)?
The IC50 was 83.8 nM.

What about the IC50 (HCC1569) of the same molecule?
Its IC50 is 151 nM.

What about the IC50 (HCC827) of the same molecule?
Its IC50 is 70.9 nM.

And the IC50 (HCT116)?
Its IC50 is 60.2 nM.

And the IC50 (HNT-34)?
Its IC50 is 22.3 nM.

And the IC50 (HPAC)?
Its IC50 is 79.1 nM.

And the IC50 (JPC3)?
Its IC50 is 171 nM.

And the IC50 (JeKo-1)?
The IC50 was 20.6 nM.

And the IC50 (KASUMI-3)?
Its IC50 is 43.3 nM.

What about the IC50 (KATOIII) of the same molecule?
The IC50 was 158 nM.

What about the IC50 (KG-1) of the same molecule?
Its IC50 is 153 nM.

And the IC50 (KP-N-RT-BM-1)?
Its IC50 is 15.1 nM.

What about the IC50 (LS180) of the same molecule?
The IC50 was 82.7 nM.

What about the IC50 (MC38) of the same molecule?
Its IC50 is 217 nM.

And the IC50 (MCF7)?
Its IC50 is 75.9 nM.

What about the IC50 (MOLM-1) of the same molecule?
The IC50 was 80.5 nM.

And the IC50 (MOLM13)?
Its IC50 is 2.39 nM.

And the IC50 (MV-4-11)?
The IC50 was 0.68 nM.

And the IC50 (NB-1)?
The IC50 was 45 nM.

What about the IC50 (Ovcar3) of the same molecule?
Its IC50 is 70.7 nM.

What about the IC50 (PA-1) of the same molecule?
Its IC50 is 48 nM.

And the IC50 (PANC0403)?
Its IC50 is 220 nM.

And the IC50 (SK-BR-3)?
The IC50 was 38.8 nM.

And the IC50 (SK-N-AS)?
Its IC50 is 77.2 nM.

And the IC50 (SKNO-1)?
Its IC50 is 23.3 nM.

What about the IC50 (SU-DHL-6) of the same molecule?
The IC50 was 28.4 nM.

And the IC50 (SW1990)?
Its IC50 is 104 nM.

And the IC50 (SW403)?
Its IC50 is 18 nM.

What about the IC50 (SW480) of the same molecule?
The IC50 was 90.5 nM.

What about the IC50 (T47D) of the same molecule?
The IC50 was 114 nM.

And the IC50 (Toledo)?
Its IC50 is 34.6 nM.

What about the IC50 (U87 MG) of the same molecule?
The IC50 was 89.2 nM.

What about the IC50 (ZR-75-1) of the same molecule?
The IC50 was 144 nM.
